According to patent US20250333398A1, “MONOARYL AND HETARYL SUBSTITUTED INDAZOLES AND BENZIMIDAZOLES AS STING ANTAGONISTS AND THE USE THEREOF AS MEDICAMENT” (Boehringer Ingelheim International GmbH, priority 2024, published 2025):

Tested on: T1, STING
T1 construct: from tissue; host or cells: human whole blood from healthy donors
Experiment: Human whole blood assay (HWBA), cGAMP-stimulated IFNα2α production
Assay type: cell-based
Conditions: human whole blood stimulated by cGAMP
Experimental: For the detection of STING inhibition in physiological environment human whole blood was stimulated by the cyclic dinucleotide cGAMP. Pathway activity was monitored by measuring the IFNα2α production.
Assay method: Compounds were delivered as 10 mM DMSO solution and serial diluted and transferred to the 96-well Cell culture Plate (Corning #3595), prefilled with 20 μl OptiMEM (Gibco #11058-021) in each well, using an Echo acoustic dispenser. Typically, 8 concentrations were used with the highest concentration at 10 μM in the final assay volume followed by ^˜1:5 dilution steps. DMSO concentration was set to 0.1% in the final assay volume. The 96 well assay plate contained 9 test compounds, a reference compound and DMSO in control wells.
Collection of human whole blood from 3 or more healthy donors (male or female, no medication for 7 days, exception contraceptive and thyroxine) as Na-citrate blood (e.g. 3.8% in Monovettes from Sarstedt) is conducted in parallel. Whole blood was kept at room temperature for a maximum of 3 hours after collection until use in the assay.
160 μl of the whole blood samples were transferred to each well of the 96-well assay plates filled with compound/OptiMEM. All assay plates are prepared as duplicates with blood from different donors. Blood plates were kept at room temperature for 60 minutes and continuous shaking with 450 rpm, covered with the lid, but not sealed.
A 10× cGAMP assay solution was diluted from a 2 mM stock solution in 1×HBSS immediately before use at room temperature. 20 μl of the 10× cGAMP/HBSS were added to all compound and all high control wells, whereas HBSS only was added to all low control wells.
After covering assay plates with aera seals and the lid, blood plates were kept at room temperature for 30 minutes and continuous shaking with 450 rpm, followed by an overnight incubation of 22 h at 37° C. in the incubator, without shaking.
For the detection of IFNα-2α in human plasma, the biotinylated capture antibody (Antibody set IFNA2, Meso Scale Diagnostics #B21VH-3, including coating and capture antibody) was diluted 1:17.5 in Diluent 100 (Meso Scale Diagnostics #R50AA-4, according to the manufacturer. U-Plex MSD GOLD 96-well Small Spot Streptavidin SECTOR Plates (Meso Scale Diagnostics #L45SA-5) were coated with 25 μl diluted capture antibody. Coated plates were incubated for 60 min at room temperature under continuous shaking at 700 rpm. MSD IFNα-2α plates were washed three times with 150 μl wash buffer (1×HBSS, 0.05% Tween).
After blocking the plates with 100 μl block solution/well (1×HBSS with 0.2% Tween, 2% BSA) for 60 min at room temperature and continuous shaking at 700 rpm, plates were emptied as dry as possible by dumping just before continuing with the human plasma. Whole Blood assay plates were centrifuged at 1600 rpm for 10 minutes. 25 μl of supernatant was transferred with a pipetting robotics from each whole blood plate to the corresponding IFNα-2α plate. Plates were sealed with microplate seals and kept at room temperature again under continuous shaking at 700 rpm for two hours. Next MSD IFNα-2α plates were washed three times with 150 μl wash buffer (1×HBSS, 0.05% Tween), before adding 25 μl MSD SULFO-TAG IFNα-2α Antibody solution (1:100 diluted in Diluent 3 (Meso Scale Diagnostics #R50AP-2) to each well of the plates. Afterwards plates were sealed with microplate seals and kept at room temperature again under continuous shaking at 700 rpm for two hours. Finally, MSD IFNα-2α plates were washed three times with 150 μl wash buffer (1×HBSS, 0.05% Tween). 150 μl 2× Read buffer was added to each well and plates were immediately measured with the MSD Sector S600 Reader using the vendor barcode.
Data evaluation and calculation: For data evaluation and calculation, % control calculation of each well was based on the mean of high (cGAMP stimulated control) and mean of low (unstimulated control) controls by using the following formula: […]

Row | Structure (SMILES) | IC50
1 | Cn1nc(-n2cc3c(-c4nc(-c5ccc(P(C)(C)=O)cc5OC(F)(F)F)n(C)c4C4CC4)cccc3n2)cc1C(F)F [Example 2, 4-{5-cyclopropyl-2-[4-(dimethylphosphoryl)-2-(trifluoromethoxy)phenyl]-1-methyl-1H-imidazol-4-yl}-2-[5-(difluoromethyl)-1-methyl-1H-pyrazol-3-yl]-2H-indazole] | 210 nM
2 | COc1nn(C)cc1-n1cc2c(-c3nc(-c4ccc(C(=O)N(C)C)cc4OC(F)(F)F)n(C)c3C3CC3)cccc2n1 [Example 3, 4-{5-cyclopropyl-4-[2-(3-methoxy-1-methyl-1H-pyrazol-4-yl)-2H-indazol-4-yl]-1-methyl-1H-imidazol-2-yl}-N,N-dimethyl-3-(trifluoromethoxy)benzamide] | 2600 nM
3 | CCOc1nn(C)cc1-n1cc2c(-c3nc(-c4ccc(C(N)=O)cc4OC(F)(F)F)n(C)c3C3CC3)cccc2n1 [Example 4, 4-{5-cyclopropyl-4-[2-(3-ethoxy-1-methyl-1H-pyrazol-4-yl)-2H-indazol-4-yl]-1-methyl-1H-imidazol-2-yl}-3-(trifluoromethoxy)benzamide] | 95 nM
4 | COc1nn(C2CC2)cc1-n1cc2c(-c3nc(-c4ccc(C(N)=O)cc4OCC(F)F)n(C)c3C3CC3)cccc2n1 [Example 6, 4-{5-cyclopropyl-4-[2-(1-cyclopropyl-3-methoxy-1H-pyrazol-4-yl)-2H-indazol-4-yl]-1-methyl-1H-imidazol-2-yl}-3-(2,2-difluoroethoxy)benzamide] | 58 nM
5 | CC[P@](C)(=O)c1ccc(-c2nc(-c3cccc4nn(-c5cc(C(F)F)n(C)n5)cc34)c(C3CC3)n2C)c(OC(F)(F)F)c1 [Example 7, 4-(5-cyclopropyl-2-{4-[(S)-ethyl(methyl)phosphoryl]-2-(trifluoromethoxy)phenyl}-1-methyl-1H-imidazol-4-yl)-2-[5-(difluoromethyl)-1-methyl-1H-pyrazol-3-yl]-2H-indazole] | 57 nM
6 | Cn1nc(-n2cc3c(-c4nc(-c5ccc(C(N)=O)cc5OC(F)(F)F)n(C)c4C4CC4)cccc3n2)cc1C(F)(F)F [Example 8, 4-(5-cyclopropyl-1-methyl-4-{2-[1-methyl-5-(trifluoromethyl)-1H-pyrazol-3-yl]-2H-indazol-4-yl}-1H-imidazol-2-yl)-3-(trifluoromethoxy)benzamide] | 80 nM
7 | COc1nn(C2CC2)cc1-n1cc2c(-c3nn(-c4ccc(P(C)(C)=O)cc4C)c(C)c3C(C)C)cccc2n1 [Example 9, 2-(1-cyclopropyl-3-methoxy-1H-pyrazol-4-yl)-4-{1-[4-(dimethylphosphoryl)-2-methylphenyl]-5-methyl-4-(propan-2-yl)-1H-pyrazol-3-yl}-2H-indazole] | 1500 nM
8 | COc1nn(CC(C)(C)O)cc1-n1cc2c(-c3nc(-c4ccc(C(N)=O)cc4OC(F)(F)F)n(C)c3C3CC3)cccc2n1 [Example 11, 4-(5-cyclopropyl-4-{2-[1-(2-hydroxy-2-methylpropyl)-3-methoxy-1H-pyrazol-4-yl]-2H-indazol-4-yl}-1-methyl-1H-imidazol-2-yl)-3-(trifluoromethoxy)benzamide] | 880 nM
9 | COCc1cc(C(N)=O)ccc1-c1nc(-c2cccc3nn(-c4cn(C5CC5)nc4OC)cc23)c(C2CC2)n1C [Example 12, 4-{5-cyclopropyl-4-[2-(1-cyclopropyl-3-methoxy-1H-pyrazol-4-yl)-2H-indazol-4-yl]-1-methyl-1H-imidazol-2-yl}-3-(methoxymethyl)benzamide] | 840 nM
10 | CC[P@@](C)(=O)c1ccc(-c2nc(-c3cccc4nn(-c5cn(C6CC6)nc5OC)cc34)c(C3CC3)n2C)c(OC(F)(F)F)c1 [Example 13, 4-(5-cyclopropyl-2-{4-[(R)-ethyl(methyl)phosphoryl]-2-(trifluoromethoxy)phenyl}-1-methyl-1H-imidazol-4-yl)-2-(1-cyclopropyl-3-methoxy-1H-pyrazol-4-yl)-2H-indazole] | 38 nM
11 | CC[P@](C)(=O)c1ccc(-c2nc(-c3cccc4nn(-c5cn(C6CC6)nc5OC)cc34)c(C3CC3)n2C)c(OC(F)(F)F)c1 [Example 14, 4-(5-cyclopropyl-2-{4-[(S)-ethyl(methyl)phosphoryl]-2-(trifluoromethoxy)phenyl}-1-methyl-1H-imidazol-4-yl)-2-(1-cyclopropyl-3-methoxy-1H-pyrazol-4-yl)-2H-indazole] | 11 nM
12 | COc1nn(C2CC2)cc1-n1cc2c(-c3nc(-c4ccc(C(=O)N(C)C)cc4OC(F)(F)F)n(C)c3C3CC3)cccc2n1 [Example 15, 4-{5-cyclopropyl-4-[2-(1-cyclopropyl-3-methoxy-1H-pyrazol-4-yl)-2H-indazol-4-yl]-1-methyl-1H-imidazol-2-yl}-N,N-dimethyl-3-(trifluoromethoxy)benzamide] | 110 nM
13 | COc1nn(C2CC2)cc1-n1cc2c(-c3nc(-c4ccc(C(N)=O)cc4OC(F)(F)F)n(C)c3C3CC3)cccc2n1 [Example 16, 4-{5-cyclopropyl-4-[2-(1-cyclopropyl-3-methoxy-1H-pyrazol-4-yl)-2H-indazol-4-yl]-1-methyl-1H-imidazol-2-yl}-3-(trifluoromethoxy)benzamide] | 35 nM
14 | CCP(=O)(CC)c1ccc(-c2nc(-c3cccc4nn(-c5cc(C(F)(F)F)n(C)n5)cc34)c(C3CC3)n2C)c(OC(F)(F)F)c1 [Example 17, 4-{5-cyclopropyl-2-[4-(diethylphosphoryl)-2-(trifluoromethoxy)phenyl]-1-methyl-1H-imidazol-4-yl}-2-[1-methyl-5-(trifluoromethyl)-1H-pyrazol-3-yl]-2H-indazole] | 89 nM
15 | CC[P@](C)(=O)c1ccc(-c2nc(-c3cccc4[nH]c(-c5cc(C(F)(F)F)n(C)n5)nc34)c(C3CC3)n2C)c(OC(F)(F)F)c1 [Example 18, 4-(5-cyclopropyl-2-{4-[(S)-ethyl(methyl)phosphoryl]-2-(trifluoromethoxy)phenyl}-1-methyl-1H-imidazol-4-yl)-2-[1-methyl-5-(trifluoromethyl)-1H-pyrazol-3-yl]-1H-1,3-benzodiazole] | 87 nM
16 | CC[P@](C)(=O)c1ccc(-c2nc(-c3cccc4nn(-c5cc(C6CC6)n(C)n5)cc34)c(C3CC3)n2C)c(OC(F)(F)F)c1 [Example 19, 2-(5-cyclopropyl-1-methyl-1H-pyrazol-3-yl)-4-(5-cyclopropyl-2-{4-[(S)-ethyl(methyl)phosphoryl]-2-(trifluoromethoxy)phenyl}-1-methyl-1H-imidazol-4-yl)-2H-indazole] | 140 nM

Tested on: STING
Experiment: IP10 production in human dermal microvascular endothelial cells (MVEC) after double-stranded DNA stimulation
Assay type: cell-based
Conditions: IP10 production after dsDNA stimulation; rounded average of multiple experiments; read-out: Inhibition of Human microvascular endothelial cells (IC50 nM)
From the text: Interferon gamma-induced protein 10 (IP-10) also known as C—X—C motif chemokine ligand 10 (CXCL10) is produced as one of the responses of the presence of double-stranded DNA in the cytoplasm and resulting STING activity. In some diseases, imbalanced STING activation can result to damage in the endothelium, for example in SAVI patients (Liu Yet al. Activated STING in a vascular and pulmonary syndrome. N Engl J Med. 2014 Aug. 7; 371(6):507-518. doi: 10.1056/NEJMoa1312625). To test the efficacy of the inventive STING inhibitors, experiments in human microvascular endothelial cells (HMVEC) are performed with the inventive compounds. Dermal HMVEC are available from Lonza, US. They are cultured in 96 well plates according to the manufacturer's instructions. Using typical protocols, the cells are serum starved and then treated with the compound for 1 hour. The cells are then treated with 400 ng/mL of dsDNA as a complex with Lipofectamine 3000 (from Thermo Fisher Scientific Inc., Waltham, MA, USA) and incubated for 6 hours. The supernatants are collected and assayed for IP10 production.
Detection of IP10 is done using the U-PLEX HUMAN IP-10 ASSAY from Meso Scale Diagnostics (1601 Research Boulevard, Rockville, Maryland 20850-3173, USA) according to manufacturer's protocols.

Row | Structure (SMILES) | IC50
17 | CC[P@](C)(=O)c1ccc(-c2nc(-c3cccc4nn(-c5cc(C(F)F)n(C)n5)cc34)c(C3CC3)n2C)c(OC(F)(F)F)c1 [Example 7, 4-(5-cyclopropyl-2-{4-[(S)-ethyl(methyl)phosphoryl]-2-(trifluoromethoxy)phenyl}-1-methyl-1H-imidazol-4-yl)-2-[5-(difluoromethyl)-1-methyl-1H-pyrazol-3-yl]-2H-indazole] | 21 nM
